Data taken from patent US12605399B2, “Compositions for CFTR MRNA therapy” (TRANSLATE BIO, INC., priority 2020, dated 2026).

Tested on: male CD1 mice
Assay: Luciferase production in the lung after intratracheal FFL mRNA-LNP
Type: in vivo, mouse
Settings: for potency as determined by the average radiance detected in mouse lungs: FFL mRNA-LNP, intratracheal, about 5 hours post-dose; for performance in liposomes administered through pulmonary delivery via nebulization: mouse, in vivo
Procedure: About 150 cationic lipids were tested. (FIG. 7). Each cationic lipid was used in preparing lipid nanoparticles encapsulating mRNA encoding firefly luciferase protein (FFL mRNA) according to methods known in the art. For example, suitable methods for mRNA encapsulation include methods described in International Publication Nos. WO2016/004318 and WO 2018/089801, which is hereby incorporated by reference in its entirety. The tested lipid nanoparticles comprised a lipid component consisting of a cationic lipid, a non-cationic lipid (DOPE), a PEG-modified lipid (DMG-PEG2K), and optionally cholesterol.
Lipid nanoparticle formulations comprising FFL mRNA were administered to male CD1 mice by a single intratracheal administration via nebulization using a Microsprayer®. At approximately 5 hours post-dose, the animals were dosed with luciferin by intraperitoneal injection and all animals were imaged using an IVIS imaging system to measure luciferase production in the lung. […] Some cationic lipids remarkably had greater than 50-fold increase in pulmonary protein expression as compared to other cationic lipids.

Compound	potency as determined by the average radiance detected in mouse lungs	performance in liposomes administered through pulmonary delivery via nebulization	historical radiance/expression of pulmonary-delivered FFL mRNA LNP (mice, nebulized FFL mRNA in LNP with this cationic lipid)
CCCCCCCCCCCCCCOC(=O)CC(CC(=O)OCCCCCCCCCCCCCC)(OC(=O)CCN(C)C)C(=O)OCCCCCCCCCCCCCC [TL1-04D-DMA]	particularly high potency	performed particularly well	–
CCCCCCCCC(O)CN(CCCCC(=O)OCCN1CC(C)N(CCOC(=O)CCCCN(CC(O)CCCCCCCC)CC(O)CCCCCCCC)CC1C)CC(O)CCCCCCCC (stereo not shown) [HEP-E4-E10]	particularly high potency	performed particularly well	–
CCCCC/C=C\C/C=C\CCCCCCCC(=O)OCC(COC(=O)CCCCCCC/C=C\C/C=C\CCCCC)(COC(=O)CCCCCCC/C=C\C/C=C\CCCCC)NCCS(=O)(=O)NCCCN(C)C [GL-TES-SA-DMP-E18-2]	particularly high potency	performed particularly well	–
CCCCCCCCC(O)CN(CCCC(=O)OCCN1CC(C)N(CCOC(=O)CCCN(CC(O)CCCCCCCC)CC(O)CCCCCCCC)CC1C)CC(O)CCCCCCCC (stereo not shown) [HEP-E3-E10]	particularly high potency	performed particularly well	–
CCCCC/C=C\C/C=C\CCCCCCCC(=O)OCC(COC(=O)CCCCCCC/C=C\C/C=C\CCCCC)(COC(=O)CCCCCCC/C=C\C/C=C\CCCCC)NCCS(=O)(=O)NCCN(C)C [GL-TES-SA-DME-E18-2, 2-((2-(N-(2-(dimethylamino)ethyl)sulfamoyl)ethyl)amino)-2-((((9Z,12Z)-octadeca-9,12-dienoyl)oxy)methyl)propane-1,3-diyl (9Z,9′Z,12Z,12′Z)-bis(octadeca-9,12-dienoate)]	particularly high potency	performed particularly well	–
CCCCCCCCOC(=O)CC(CC(=O)OCCCCCCCC)(OC(=O)CCN(C)C)C(=O)OCCCCCCCC [TL1-01D-DMA, trioctyl 2-((3-(dimethylamino)propanoyl)oxy)propane-1,2,3-tricarboxylate]	particularly high potency	performed particularly well	–
CC(C)CCCC(C)C1CCC2C3CC=C4CC(OC(=O)CCc5cnc[nH]5)CCC4(C)C3CCC12C (stereo not shown) [ICE, imidazole cholesterol ester, reference compound]	–	–	around 10^4 p/s/cm^2sr
